{"source": "patent US11274131B2", "about": "“IgM-mediated receptor clustering and cell modulation” (MAYO FOUNDATION FOR MEDICAL EDUCATION AND RESEARCH, priority 2007, dated 2022)", "assay_type_in_all_cases": "cell-based", "key": {"[1]": {"test_system": "human DC", "test": "Cap formation / FRET on human DC", "experimental": "(§1) DC of murine origin were stained with anti-Class II-FITC (MF/114.15.2), and either anti-CD80-PE (16.10A1)/CD86-PE (GL-1), or anti-CD11c-PE (N418). DC of human origin were stained with anti-Class II-FITC (LN3) and anti-CD80-PE (2D10.4)/CD86-PE (IT2.2). All incubations were carried out for 15 minutes at 37° C. The cells were subsequently stimulated with 10 μg/ml of control (sHIgM39) or B7-DC XAb, and were observed every 5 minutes using time lapse confocal imaging at 40.times magnification with a LSM510 Laser scanning confocal microscope having a 37° C. stage (Carl-Zeiss Inc, Oberkochen, Germany). Jurkat cells were pre stained with anti-human CD28-FITC (CD28.2) for 15 minutes, followed by addition of 10 μg/ml of MTAb control antibody sHIgM39, MTAb sHIgM22, or anti-K^b IgM (28-13-3), and were and analyzed in the same manner as the DC.\nThe flow cytometry approach for FRET was used as a way of quantifying molecular aggregation on the cell surface and was carried out as described previously (Block et al. (2001) J. Immunol. 167:821-826). Briefly, DC of murine origin were stained with anti-Class II APC (M5/114.15.2) and anti-CD80-PE (16.10A1)/CD86-PE(GL-1) for 15 minutes to visualize FRET between these molecules. […] Data collected as log10 fluorescence were analyzed using CELLQUEST™ (BD Biosciences). […]"}, "[2]": {"test_system": "mouse DC", "test": "Cap formation / FRET on mouse DC", "experimental": "as §1\nThe flow cytometry approach for FRET was used as a way of quantifying molecular aggregation on the cell surface and was carried out as described previously (Block et al. (2001) J. Immunol. 167:821-826). Briefly, DC of murine origin were stained with anti-Class II APC (M5/114.15.2) and anti-CD80-PE (16.10A1)/CD86-PE(GL-1) for 15 minutes to visualize FRET between these molecules. Monitoring for FRET induced by interaction between TREM-2 and Class-II molecules was achieved by incubating the cells with the abovementioned anti-Class-II antibody and anti-TREM-2-PE (237920). DC of human origin were stained for 15 minutes with APC-anti class II (LN3) and anti-CD80-PE (2D10.4)/CD86-PE (IT2.2). In experiments involving blocking of B7-DC, both fluorophore labeled antibodies and purified anti-mouse B7-DC (TY-25) or purified anti-human B7-DC (MIH18) IgG monoclonal antibody was added at 10 μg/ml for 15 minutes. Jurkat cells were stained with anti-human Class I-PE (G46-2.6) or anti-human CD4 (RPA-T4) and anti-human CD28-APC (CD28.2) for 15 minutes. Cells were stimulated with control antibody or B7-DC XAb or purified anti-mouse class II IgM (25-9-3) (experiments involving DC) or sHIgM22 (experiments involving Jurkat cells) and aliquots from different groups were taken at different time points. After 15 minutes of incubation, the cells were washed and fixed in 2% paraformaldehyde prior to analysis by FACS using a FACSCALIBER™ (BD Biosciences, Franklin Lakes, N.J.). Data collected as log10 fluorescence were analyzed using CELLQUEST™ (BD Biosciences). The FRET signal was visualized in FL3 channel (650-670 nm LP)."}, "[3]": {"test_system": "human DC", "test": "Calcium flux assay, human DC", "experimental": "Changes in the levels of intracellular Ca^2+ were assessed in Indol-loaded cells by flow cytometry as described previously (Takahashi et al. (2005) J. Exp. Med. 201:647-657). Briefly, 5×10^6 DC/ml were incubated with 5 μM Indo-1 (Calbiochem) at 37° C. for 30 minutes. The cells were washed twice in serum free media and resuspended at 10^6/ml in PBS containing 0.5% BSA. The samples were analyzed by flow cytometry using a UV laser. Violet (390 nm) and blue (500 nm) fluorescence emissions were recorded. Baseline was recorded for two minutes. Antibody was added to the cell suspension (10 μg/ml of control antibody or B7-DC XAb) and the measurements were recorded for 8 additional minutes. In blocking experiments, mouse or human DC were pre-incubated with 10 μg/ml of purified anti-mouse B7-DC antibody (TY-25) or purified anti-human B7-DC antibody (MIH18) for 15 minutes, followed by collection of data for calcium flux as described above. Ionomycin added at 1 μg/ml after 2 minutes served as a positive control. The blue to violet ratio was calculated using FlowJo software (Tristar, Ashland, Oreg.)."}}, "data": [{"substance": "B7-DC XAb: human monoclonal IgM from a Waldenstrom's macroglobulinemia patient that binds and cross-links B7-DC on DC", "values": [{"measurement": "reorganization of tagged class II, CD80, CD86 into a capped cluster", "setting": "[1]", "result": "reorganized into a distinctly capped cluster"}, {"measurement": "FRET among class II, CD80 and CD86", "setting": "[1]; within ten minutes", "result": "strong FRET signal"}, {"measurement": "co-capping of CD80 and CD86 or CD11c with class II molecules", "setting": "[2]; DC from CD80/CD86 double knock out and MHC class II knock out mice", "result": "still occurred"}, {"measurement": "reorganization of tagged class II, CD80, CD86 into a capped cluster", "setting": "[2]; mouse DC", "result": "reorganized into a distinctly capped cluster"}, {"measurement": "FRET among class II, CD80 and CD86", "setting": "[2]; mouse DC, within ten minutes", "result": "strong FRET signal"}, {"measurement": "time to association of TREM-2 with class II molecules by FRET", "setting": "[2]; mouse DC, increased by 15 minutes", "result": "≤ 5", "unit": "min"}, {"measurement": "intracellular calcium signal", "setting": "[3]", "result": "prolonged calcium signals"}]}]}
